Biological target: T1, Lysine 2,3-aminomutase (LAM) (Clostridium subterminale, UniProt Q9XBQ8)
T1 sequence (Q9XBQ8 1-416): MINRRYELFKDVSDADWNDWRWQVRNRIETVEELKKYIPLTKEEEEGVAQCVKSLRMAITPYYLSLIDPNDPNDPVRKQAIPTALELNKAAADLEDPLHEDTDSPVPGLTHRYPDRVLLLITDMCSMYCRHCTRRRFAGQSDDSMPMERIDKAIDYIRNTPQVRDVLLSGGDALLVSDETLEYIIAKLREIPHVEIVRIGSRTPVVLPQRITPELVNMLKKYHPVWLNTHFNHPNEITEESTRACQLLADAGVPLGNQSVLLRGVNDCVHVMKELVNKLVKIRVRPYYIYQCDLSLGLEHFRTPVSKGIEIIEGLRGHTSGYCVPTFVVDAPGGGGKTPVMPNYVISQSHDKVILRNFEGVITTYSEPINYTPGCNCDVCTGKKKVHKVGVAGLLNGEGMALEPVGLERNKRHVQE
Assay: activation of L-alanine […],3-aminomutation, PITC-HPLC
Type: biochemical
Conditions: 200000 µM; activator; 0.2 M L-alanine, 0.16 mM SAM, pH 8.0, 37 °C, anaerobic

SMILES: CN [methylamine]
- fold acceleration at 0.2 M: 27 fold

Source: PMC4337230 (The journal of physical chemistry. B, 2010)
